# Values of other authors as cited in patent US8496977B2, “Natural extract from whole banana fruit (Musa Spp)” (priority 2009, dated 2013).
# What was measured:
# eicosanoid synthesis = conditions: by modulating eicosanoid synthesis
compound,measurement,setting,value
NCCc1ccc(O)c(O)c1 [dopamine],protection against intestinal mucosal injury,eicosanoid synthesis,protect against intestinal mucosal injury
same,radical-scavenging rate,compared with catechin and gallocatechin gallate,faster radical-scavenging rate than catechin
same,antioxidative potency,compared with other antioxidants,"greater than that of BHA, BHT, flavonoids, glutathione, and catechin"
